The values that follow come from patent US20170015718A1, “PRO-APOPTOTIC RAS AND RAF PEPTIDES” (UNIVERSITE PIERRE ET MARIE CURIE (PARIS 6), priority 2013, published 2017).

Assay [1] concerns colon cancer cell line HCT116. Put plainly: Apoptosis of colon cancer cell line HCT116. As to conditions: 12.5 μM for 72 h. Format: cell-based.
The test system of the next assay is Ras/Raf interaction. In words: In vitro competition of Ras/Raf interaction (immunoprecipitation from cell lysates, blot). The assay is classed as binding, Human. The settings on record: 1.5 mM of peptides, 30 min, room temperature; FIGS. 2A, 2B. As for the experimental part: FIGS. 2A and 2B show in vitro competition of Ras/Raf interaction. Cells were lysed for 20 min at 4° C. in lysis buffer (50 mM Tris (pH 8), 1% Nonidet P-40, 137 mM NaCl, 1 mM MgCl2, 1 mM CaCl2, 10% glycerol, and protease inhibitor mixture). Lysates (800 μg of protein) were immunoprecipitated with the appropriate Ab overnight at 4° C., and protein A-Sepharose was added for 1 h at 4° C. After washing with 1×TBST (20 mM Tris-HCl (pH 7.5), 150 mM NaCl, 0.05% Tween 20), the Ras/Raf interaction was competed using peptides Mut3DPT-Ras (A) or Mut3DPT-Raf+Mut3DPT-Raf2 (B) at a concentration of 1.5 mM for 30 min at room temperature. After a washing, immunoprecipitates were transferred to nitrocellulose and blotted with the corresponding Ab.
The Ras/Raf interaction was competed using peptides corresponding to the binding site of Ras to Raf and vice versa. Lysates from MDA-MB321 or BC52 cell lines were immunoprecipitated with anti-Ras or anti-Raf Ab, and protein A-Sepharose was added. The Ras/Raf interaction was competed with 1.5 mM of peptides (30 min, room temperature). After washing steps, immunoprecipitates were transferred to nitrocellulose and blotted with the corresponding Ab. Proteins were detected using the ECL system.

For assay [2], the system named is K-Ras mutated cell line SW626. Put plainly: Apoptosis by Annexin V-FITC staining, SW626. Format: cell-based, Human. The settings on record: SW626, 100 μM for 24 h; FIG. 3C. The protocol: FIGS. 3A to 3D show effect of peptides on apoptosis. A) MDA-MB231 cell line (mutated K-Ras) was cultured in the presence of the identified peptides at a concentration of 100 μM for 24 h. Apoptosis was detected by Annexin V-FITC staining and analyzed by flow cytometry. B) MDA-MB231 cell line was cultured as above, but to a concentration of 10 or 25 μM peptides. Apoptosis was estimated by annexin V-FITC staining. C) The K-Ras mutated cell line SW626 was cultured and analyzed as in A. D) The wild type K-RAs cell line BC 227 was cultured and analyzed as in A.
Apoptotic cells were detected using Annexin-V (-FITC from BD biosciences) as described by the manufacturer. Briefly, the cells were washed in 1× binding buffer, centrifugated and then resuspended in 200 μl of 1× binding buffer containing Annexin V-FITC (0.1 μg/ml) and PI (0.5 μg/ml). After incubation at room temperature in the dark for 10 min, cells were analyzed by flow cytometry. Data acquired by FACSCalibur (BD biosciences) were analyzed with Cellquest Pro software.

The test system of assay [3] is primary tumor cells of chronic lymphocytic leukemia (CLL). In words: Apoptosis of primary tumor cells of chronic lymphocytic leukemia. The assay is classed as cell-based.

For the sequence “VKKKKIKAEIKIHEHKGKKARLDWNTDAAS (chimeric peptide) [Mut3DPT-Raf2]”, in assay [1], the “apoptosis of HCT116” value is on record as “cause apoptosis”.
“VKKKKIKAEIKIKMSKDGKKKKKKSKTKCVIM (chimeric peptide) [Mut3DPT-Ras]”: the “competition of the Ras/Raf interaction in vitro” value in the assay on Ras/Raf interaction is recorded as “able to compete in vitro the interaction Ras/Raf”. Moreover, the apoptotic effect result in assay [2] is “lower level of apoptosis”. Also, the “effect on CLL B and non-B cells” value in assay [3] is given as “marked effect”.
